Source: patent US20250025581A1, “Medical Imaging of Glycogen Synthase Kinase-3 with a PET Probe” (Mayo Foundation for Medical Education and Research, priority 2021, published 2025)
Structures can show the parent of a compound that is named as a salt.

Key:
[1] = PAMPA, pH 7.4
Description: The blood brain permeability was expressed as permeability coefficient, P (10-6 cm/s) and −log Pe.

[2] = in vivo PET imaging in mice (Example 1), brain uptake; details: mouse brain
Procedure: Initial in vivo study in mouse model: Initial in vivo PET imaging studies were conducted in mice at different time points. The uptake of the [^18F]CNPIFE (28) probe is expressed as a standard uptake value (SUV).
In vivo study in mouse model: In vivo PET imaging studies were conducted in mice at different time points to compare the SUV for [^18F]—CNBI (4) and [^18F]CNPIFE (28).

[3] = serum stability by rad-TLC, mouse serum; assay type: in vitro ADME; details: 37° C., up to 120 min
Procedure: (§1) The stability of both the probes in mouse and human serums was also measured along with a control at 0 min, 30 min, 60 min, and 120 min using rad-TLC as discussed later below. It was observed that [^18F]F-CNBI was stable >92% up to 120 min.
(§2) Serum Stability Analysis: Stability analysis of [^18F]F-CNBI and [^18F]F-CNPIFE were assessed in human and mouse serums. To perform this stability assay, 100 μL of [^18F]F-CNBI (˜0.74 MBq) or 100 μL of [^18F]F-CNPIFE (˜3.70 MBq) was added to 100 μL of human or mouse serum in a microcentrifuge tube. The resultant mixture of radiotracer and serum was incubated at 37° C. for 120 min. To assess the stability of the probes, a small aliquot (˜0.5 μL) was taken out from the mixture in duplicate at 0 min, 30 min, 60 min and 120 min during incubation, and analyzed on a rad-TLC using 1:9 methanol: chloroform as a mobile phase using i-TLC to estimate the radio-stability of [^18F]F-CNBI or [^18F]F-CNPIFE at different time points post-incubation. For control, 100 μL of [^18F]F-CNBI (˜0.74 MBq) was taken in a microcentrifuge without dilution or 100 μL of [^18F]F-CNPIFE (˜3.70 MBq) was added to 100 μL deionized water in a microcentrifuge tube. Both the controls, were incubated at 25° C. for 120 min. At 0 min, 30 min, 60 min and 120 min during incubation, small aliquot (˜0.5 μL) was taken from the controls in duplicate and rad-TLC was performed as mentioned above. […]

[4] = dynamic micro-PET imaging and biodistribution in normal FVB/NJ mice with and without self-blocking; assay type: in vivo, mouse; details: for effect of co-administration of the reference compound on brain uptake: self-blocking study
Procedure: To pursue this, [^18F]F-CNBI and [^18F]F-CNPIFE were evaluated in the normal FVB/NJ mouse model.
The uptake of [^18F]F-CNPIFE (SUV=0.48±0.09; n=5) in brain was 2.5-fold higher than [^18F]F-CNBI (SUV=0.19±0.06; n=6) as early as 5 min post-injection. This difference increased with time: 4.8-fold higher SUV for [^18F]F-CNPIFE (SUV=0.48±0.11; n=5) as compared to [^18F]F-CNBI (SUV=0.10±0.01; n=6) at 15 min which further increased to 9.5-fold difference at 30 min (see FIG. 21). […] The differences in uptakes of [^18F]F-CNPIFE and [^18F]F-CNBI in the brain and liver likely relate to the difference in their chemical structures (compounds 4 and 28). Greater accumulation of [^18F]F-CNPIFE in the brain relative to [^18F]F-CNBI was consistent with its higher BBB permeability value indicated by the PAMPA assay (see Table 1).
To further understand the characteristics of the uptake of these PET probes in the brain, self-blocking studies with corresponding non-radiolabeled reference compounds were performed. In general, co-administration of [^18F]F-CNBI and [^18F]F-CNPIFE with their corresponding reference compounds, [^19F]F-CNBI and [^19F]F-CNPIFE, respectively, were expected to decrease the uptake of radiotracers in the brain. […] However, a non-significant trend in increase in brain uptake of [^18F]F-CNPIFE can be noticed on coadministration of nonradioactive [^19F]F-CNPIFE with the PET probe [^18F]F-CNPIFE. […] We hypothesize that enhanced brain uptake with additional administration of nonradioactive form of the tracer could be attributed to the binding of [^19F]F-CNBI with normally expressed GSK-3α/β in extremities and allowing relatively greater levels of [^18F]F-CNBI to be taken up by the brain as a peripheral effect.
In vivo study: Biodistribution of [^18F]F-CNBI and [^18F]F-CNPIFE were assessed in brain and in liver of normal FVB/NJ mice (The Jackson Laboratory, Bar Harbor, ME) with and without co administration of unlabeled reference compounds [^19F]F-CNBI (200 μg and 300 μg) and [^19F]F-CNPIFE (25 μg) in separate groups of animals. Stock solutions of [^19F]F-CNPIFE (26 mM) and [^19F]F-CNBI (25 mM) were prepared in the dimethyl sulfoxide (DMSO). For blocking studies with [^19F]F-CNBI, 200 μg (530.5 nmol) or 300 μg (795.8 nmol) of [^19F]F-CNBI (nonradioactive reference compound) was added to the PET probe [^18F]F-CNBI self-containing ˜9.3 nmol [^19F]F-CNBI in the final formulation volume of ˜100 μL. For blocking with [^19F]F-CNPIFE, 25 μg (59 nmol) of [^19F]F-CNPIFE was added to the PET probe [^18F]F-CNPIFE self-containing to 0.8-1.0 nmol of [^19F]F-CNPIFE in the final formulation volume of ˜100 μL. The final formulation containing both PET probes and their nonradioactive reference compounds were prepared in 0.9% saline isotonic solution before tail vein injection. Immediately after the tail vein injection of the radiotracers, animals were subjected to a dynamic micro-PET imaging for 30 min using a small animal micro-PET/X-ray system (Sofie BioSystems Genesys4, Culver City, CA, USA). The PET images were visualized and analyzed using image analysis software, Amide's a Medical Image Data Examiner—AMIDE [Ref. 29]. PET images at 5 min, 10 min, 15 min, 20 min, 25 min, and 30 min post-injection were normalized to the standardized uptake value (SUV), where SUV=(Concentration of dose in tissue (μCi/g)/(Injected dose (μCi)/Weight of the animal (g)) and presented as coronal, transverse and sagittal sectional image.

[5] = serum stability by rad-TLC, human serum; assay type: in vitro ADME; details: 37° C., up to 120 min
Procedure: as §1, §2

[6] = tested on: various tau isoforms and other proteins involved in neurodegeneration; experiment: affinity towards tau isoforms and other proteins involved in neurodegeneration; assay type: binding
Procedure: The affinity of [^18F]CNPIFE (28) towards various tau isoforms and other proteins involved in neurodegeneration was measured.

GSK-3 = experiment: binding affinity comparison with previous compounds, isoform not stated; assay type: biochemical; details: relative to [18F]CNBI (4)
Procedure: The inhibitory effect of [^18F]—CNBI (4) and [^18F]—CNPI (25) (as synthesized as described above) and [^18F]CNPIFE (28) (as synthesized as shown in FIG. 10) on kinase activity was measured. […] Determination of IC50 was determined as follows. The phosphorylation of glycogen synthase substrate by human glycogen synthase kinase α (GSK-3α) or human glycogen synthase kinase β (GSK-3β) was performed using human GSK-3α/β Kinase Enzyme Assay System (Promega Corporation, Madison, WI) in the presence of GSK-3α/β probes (0-400 nM). The phosphorylation of glycogen synthase substrate was quantified using ADP-Glo™ Kinase assay system (Promega Corporation, Madison, WI). IC50 of GSK-3α/β probes was determined from resulting dose response curve and IC50 curve fitting tool of GraphPad Prism 10 (GraphPad Software, San Diego, CA). (See Stein et al., “Comparison of [^18F]F-CNBI and [^18F]F-CNPIFE as Positron Emission Tomography Probes for Noninvasive Imaging of Glycogen Synthase Kinase-3 in Normal Mice”, Eur. J. Org. Chem. 2022).
It can be seen that [^18F]CNPIFE (28) has better purity (about 99% purity), better binding affinity (6×), and better blood brain barrier permeability (6×) compared to previous compounds such as [^18F]CNBI (4). The standard uptake is very close to 1, and to the gold standard value for [N-Methyl-^11C]2-(4′-methylaminophenyl)-6-hydroxybenzothiazole also known as [^11C] […]

[7] = FVB/NJ mice, 5 min post-injection
[8] = FVB/NJ mice, 15 min post-injection
[9] = FVB/NJ mice, 30 min post-injection, without coadministration of reference compound

Row | SMILES | Permeability coefficient, P (10^−6 cm/s) Average ± SD [1] | uptake in the brain (SUV) [2] [SUV] | stability in mouse serum [3] [%] | fold difference of brain uptake with blocking (coadministration of [19F]F-CNBI) ([4]; 30 min post-injection, 200-300 μg [19F]F-CNBI) | brain uptake (SUV) ([4]; 30 min post-injection, co-injected with 300 μg [19F]F-CNBI) | brain uptake (SUV) ([4]; 30 min post-injection, coadministration of 200 μg [19F]F-CNBI) | brain uptake (SUV) [4, 7] [SUV] | brain uptake (SUV) [4, 8] [SUV] | brain uptake (SUV) [4, 9] [SUV] | liver uptake (SUV) ([4]; co-injected with 200 μg [19F]F-CNBI) | liver uptake (SUV) ([4]; co-injected with 300 μg [19F]F-CNBI) | liver uptake (SUV) ([4]; same animals as brain 30 min, without coadministration of [19F]F-CNBI) | effect of co-administration of the reference compound on brain uptake [4] | stability in human serum [5] [%] | binding with various tau isoforms and other proteins involved in neurodegeneration [6] | brain uptake, fold higher than [18F]F-CNBI ([4]; 5 min post-injection) [fold] | brain uptake, fold higher than [18F]F-CNBI ([4]; 15 min post-injection) [fold] | brain uptake, fold higher than [18F]F-CNBI ([4]; 30 min post-injection) [fold] | brain uptake (SUV) ([4]; 30 min post-injection, coadministration of 25 μg [19F]F-CNPIFE) | better binding affinity compared to previous compounds such as [18F]CNBI (4) (GSK-3) [×]
1 | CC(C)NCC(O)COc1cccc2ccccc12 (stereo not drawn) [Propranolol HCl] | 32±1 10^−6 cm/s | – | – | – | – | – | – | – | – | – | – | – | – | – | – | – | – | – | – | –
2 | O=C(Nc1cnccc1-c1ccc([18F])nc1)c1ccnc(NC(=O)C2CC2)c1 [[^18F]F-CNBI, 2-(cyclopropanecarboxamido)-N-(6-(fluoro-^18F)-[3,4′-bipyridin]-3′-yl)isonicotinamide] | – | 0.4 | > 92 | 2.5-3.0 fold | 0.24±0.01 | 0.20±0.01 | 0.19±0.06 | 0.10±0.01 | 0.08±0.005 | 4.93±0.52 | 3.89±0.60 | 10.15±2.87 | significant increase | > 92 | – | – | – | – | – | –
3 | O=C(Nc1cnccc1-c1ccc(OCC[18F])cc1)c1ccnc(NC(=O)C2CC2)c1 [[^18F]F-CNPIFE] | – | 0.9 | > 83 | – | – | – | 0.48±0.09 | 0.48±0.11 | 0.76±0.16 | – | – | – | no significant difference | > 83 | no to minimum binding | 2.5 | 4.8 | 9.5 | 0.88±0.14 | 6
